Results reported in US7115750B1, “Melanin concentrating hormone antagonist” (Takeda Pharmaceutical Company Limited, priority 1999, dated 2006).

melting point | Compound
187 to 188 °C | COc1ccc(-c2ccc(C(=O)Nc3ccc4c(c3)CCC(CN3CCCC3)=C4)cc2)cc1 [Example 148, 4′-Methoxy-N-[6-(1-pyrrolidinylmethyl)-7,8-dihydro-2-naphthalenyl][1,1′-biphenyl]-4-carboxamide]
225 to 227 °C | O=C(Nc1ccc2c(c1)CCC(CN1CCCC1)=C2)c1ccc(-c2ccc(F)cc2)nc1 [Example 149, 6-(4-Fluorophenyl)-N-[6-[(1-pyrrolidinyl)methyl]-7,8-dihydro-2-naphthalenyl]nicotinamide]
216 to 219 °C | CN(C)CC1=Cc2ccc(NC(=O)c3ccc(-c4ccc(F)cc4)nc3)cc2CC1 [Example 151]
162 to 163 °C | CN(C)CC1=Cc2ccc(NC(=O)c3ccc(-c4ccc(F)cc4F)nc3)cc2CC1 [Example 152, 6-(2,4-Difluorophenyl)-N-[6-[(dimethylamino)methyl]-7,8-dihydro-2-naphthalenyl]nicotinamide]
186 to 187 °C | O=C(Nc1ccc2c(c1)CCC(CN1CCCC1)=C2)c1ccc(-c2ccccc2)nc1 [Example 153, 6-Phenyl-N-[6-(1-pyrrolidinylmethyl)-7,8-dihydro-2-naphthalenyl]nicotinamide]
197 to 198 °C | Cc1ccc(C2CCN(C(=O)Nc3ccc4c(c3)CCC(CN3CCCC3)=C4)CC2)cc1 [Example 155, 4-(4-Methylphenyl)-N-[6-(1-pyrrolidinylmethyl)-7,8-dihydro-2-naphthalenyl]-1-piperidinecarboxamide]
206 to 207 °C | O=C(Nc1ccc2c(c1)CCC(CN1CCCC1)=C2)N1CC=C(c2ccc(F)cc2)CC1 [Example 158]
217 to 218 °C | O=C(Nc1ccc2c(c1)CCC(CN1CCCC1)=C2)N1CC=C(c2ccc(Cl)cc2)CC1 [Example 159]
252 to 253 °C | O=C(Nc1ccc2c(c1)CCC(CN1CCCC1)=C2)c1ccc(-c2ccc(Cl)cc2)nc1 [Example 162, 6-(4-Chlorophenyl)-N-[6-(1-pyrrolidinylmethyl)-7,8-dihydro-2-naphthalenyl]nicotinamide]
248 to 249 °C | CN(C)CC1=Cc2ccc(NC(=O)c3ccc(-c4ccc(Cl)cc4)nc3)cc2CC1 [Example 164, 6-(4-Chlorophenyl)-N-[6-[(dimethylamino)methyl]-7,8-dihydro-2-naphthalenyl]nicotinamide]
194 to 195 °C | O=C(Nc1ccc2c(c1)CCC(CN1CCCC1)=C2)N1CCC(c2ccc(Cl)cc2)CC1 [Example 165, 4-(4-Chlorophenyl)-N-[6-(1-pyrrolidinylmethyl)-7,8-dihydro-2-naphthalenyl]-1-piperidinecarboxamide]
200 to 202 °C | Cc1ccc(C2CCN(C(=O)Nc3ccc4c(c3)CCC(CN(C)C)=C4)CC2)cc1 [Example 167, N-[6-[(Dimethylamino)methyl]-7,8-dihydro-2-naphthalenyl]-4-(4-methylphenyl)-1-piperidinecarboxamide]
161 to 163 °C | CN(C)CCNC(=O)Cc1ccc(NC(=O)CCCc2nc(-c3cc4ccccc4o3)no2)cc1 [Example 182, 4-[3-(1-Benzofuran-2-yl)-1,2,4-oxadiazol-5-yl]-N-[4-[2-[[2-(dimethylamino)ethyl]amino]-2-oxoethyl]phenyl]butanamide]
186 to 187 °C (dec.) | CN(C)CCNC(=O)Cc1ccc(NC(=O)c2cc3ccccc3s2)cc1 [Example 185, N-[4-[2-[[2-(Dimethylamino)ethyl]amino]-2-oxoethyl]phenyl]-1-benzothiophen-2-carboxamide]
115 to 117 °C | CN(C)CCNC(=O)Cc1ccc(NC(=O)Cc2ccccc2Cc2ccccc2)cc1 [Example 186, 2-(2-Benzylphenyl)-N-[4-[2-[[2-(dimethylamino)ethyl]amino]-2-oxoethyl]phenyl]acetamide]
123 to 124 °C | COc1ccc(CC(=O)Nc2ccc(CC(=O)NCCN(C)C)cc2)cc1OC [Example 187, 2-(3,4-dimethoxyphenyl)-N-[4-[2-[[2-(dimethylamino)ethyl]amino]-2-oxoethyl]phenyl]acetamide]
125 to 126 °C | COc1ccc2[nH]c(C)c(CC(=O)Nc3ccc(CC(=O)NCCN(C)C)cc3)c2c1 [Example 188, N-[4-[2-[[2-(Dimethylamino)ethyl]amino]-2-oxoethyl]phenyl]-2-(5-methoxy-2-methyl-1H-indol-3-yl)acetamide]
132 to 133 °C | CN(C)CCNC(=O)Cc1ccc(NC(=O)CCCc2c[nH]c3ccccc23)cc1 [Example 189, N-[4-[2-[[2-(Dimethylamino)ethyl]amino]-2-oxoethyl]phenyl]-4-(1H-indol-3-yl)butanamide]
204 to 208 °C | CN(C)CCNC(=O)Cc1ccc(NC(=O)c2ccc(OCc3ccc(-c4ccccc4)cc3)cc2)cc1 [Example 191, 4-([1,1′-Biphenyl]-4-ylmethoxy)-N-[4-[2-[[2-(dimethylamino)ethyl]amino]-2-oxoethyl]phenyl]benzamide]

melting point | Compound
220 to 221 °C | CN(C)CCNC(=O)Cc1ccc(NC(=O)c2ccc(NC(=O)c3ccccc3)cc2)cc1 [Example 192, 4-(Benzoylamino)-N-[4-[2-[[2-(dimethylamino)ethyl]amino]-2-oxoethyl]phenyl]benzamide]
196 to 198 °C (dec.) | COc1ccc(-c2ccc(C(=O)Nc3ccc(CC(=O)NCCN(C)C)cc3)cc2)cc1 [Example 193, N-[4-[2-[[2-(Dimethylamino)ethyl]amino]-2-oxoethyl]phenyl]-4′-methoxy[1,1′-biphenyl]-4-carboxamide]
162 to 163 °C (dec.) | CN(C)CCNC(=O)Cc1ccc(NC(=O)c2ccc3c(c2)S(=O)(=O)c2ccccc2C3=O)cc1 [Example 194, N-[4-[2-[[2-(Dimethylamino)ethyl]amino]-2-oxoethyl]phenyl]-9,10,10-trioxo-9,10-dihydro-10λ^6-thioxanten-3-carboxamide]
190 to 192 °C (dec.) | CN(C)CCNC(=O)Cc1ccc(NC(=O)c2ccc(OCc3ccccc3)cc2)cc1 [Example 195]
173 to 175 °C (dec.) | CN(C)CCNC(=O)Cc1ccc(NC(=O)c2ccc(C(=O)c3ccccc3)cc2)cc1 [Example 196, 4-Benzoyl-N-[4-[2-[[2-(dimethylamino)ethyl]amino]-2-oxoethyl)phenyl]benzamide]
215 to 218 °C (dec.) | Cc1cc(-c2ccncc2)c(C(=O)Nc2ccc(CC(=O)NCCN(C)C)cc2)[nH]1 [Example 197, N-[4-[2-[[2-(Dimethylamino)ethyl]amino]-2-oxoethyl]phenyl]-5-methyl-3-(4-pyridinyl)-1H-pyyrole-2-carboxamide]
179 to 180 °C | COc1ccc(-c2ccc(C(=O)Nc3ccc4c(c3)CCC(CN3CCCC3)=C4C)cc2)cc1 [Example 200, 4′-Methoxy-N-[6-(1-pyrrolidinylmethyl)-5-methyl-7,8-dihydro-2-naphthalenyl][1,1′-biphenyl]-4-carboxamide]
160 to 163 °C | CN(C)CC1CCc2cc(NC(=O)N3CCC(c4ccc(F)cc4)CC3)ccc2C1O (centres unmarked) [Example 203, N-[6-[(Dimethylamino)methyl]-5-hydroxy-5,6,7,8-tetrahydro-2-naphthalenyl]-4-(4-fluorophenyl)-1-piperidinecarboxamide]
184 to 186 °C | O=C(Nc1ccc2c(c1)CCC(CCN1CCCC1)=C2)c1ccc(-c2ccccc2)cc1 [Example 204, N-[6-[2-(1-Pyrrolidinyl)ethyl]-7,8-dihydro-2-naphthalenyl][1,1′-biphenyl]-4-carboxamide]
187 to 189 °C | O=C(Nc1ccc2c(c1)CCC(CCN1CCCC1)=C2)c1ccc(-c2ccc(F)cc2)cc1 [Example 205, 4′-Fluoro-N-[6-[2-(1-pyrrolidinyl)ethyl]-7,8-dihydro-2-naphthalenyl][1,1′-biphenyl]-4-carboxamide]
207 to 209 °C | O=C(Nc1ccc2c(c1)CCC(CCN1CCCC1)=C2)c1ccc(-c2ccc(Cl)cc2)cc1 [Example 206, 4′-Chloro-N-[6-[2-(1-pyrrolidinyl)ethyl]-7,8-dihydro-2-naphthalenyl][1,1′-biphenyl]-4-carboxamide]
183 to 185 °C | CN(C)CC1CCc2cc(NC(=O)c3ccc(-c4ccc(C#N)cc4)cc3)ccc2C1 (centres unmarked) [Example 207, 4′-Cyano-N-[6-[(dimethylamino)methyl]-5,6,7,8-tetrahydro-2-naphthalenyl][1,1′-biphenyl]-4-carboxamide]
148 to 150 °C | CN(C)CCC1=Cc2ccc(NC(=O)c3ccc(-c4ccccc4)cc3)cc2CC1 [Example 208, N-[6-[2-(Dimethylamino)ethyl]-7,8-dihydro-2-naphthalenyl][1,1′-biphenyl]-4-carboxamide]
112 to 114 °C | CN(C)CCC1CCc2cc(NC(=O)c3ccc(-c4ccccc4)cc3)ccc2C1 (centres unmarked) [Example 209, N-[6-[2-(Dimethylamino)ethyl]-5,6,7,8-tetrahydro-2-naphthalenyl][1,1′-biphenyl]-4-carboxamide]
175 to 176 °C | CC1=C(CN2CCCC2)CCc2cc(NC(=O)c3ccc(-c4ccc(C)cc4)nc3)ccc21 [Example 228, 6-(4-Methylphenyl)-N-[5-methyl-6-(1-pyrrolidinylmethyl)-7,8-dihydro-2-naphthalenyl]nicotinamide]
199 to 201 °C | CC1=C(CN2CCCC2)CCc2cc(NC(=O)c3ccc(-c4ccc(F)cc4)cc3)ccc21 [Example 229, 4′-Fluoro-N-[5-methyl-6-(1-pyrrolidinylmethyl)-7,8-dihydro-2-naphthalenyl][1,1′-biphenyl]-4-carboxamide]
178 to 179 °C | CC1=C(CN2CCCC2)CCc2cc(NC(=O)c3ccc(-c4ccccc4)nc3)ccc21 [Example 233, N-[5-Methyl-6-(1-pyrrolidinylmethyl)-7,8-dihydro-2-naphthalenyl]-6-phenylnicotinamide]
159 to 160 °C | CC1=C(CN2CCCC2)CCc2cc(NC(=O)N3CCC(c4ccc(C)cc4)CC3)ccc21 [Example 238, 4-(4-Methylphenyl)-N-[5-methyl-6-(1-pyrrolidinylmethyl)-7,8-dihydro-2-naphthalenyl]-1-piperidinecarboxamide]
214 to 216 °C | Cc1ccc(C2CCN(C(=O)Nc3ccc4c(c3)CCC(CN3CCN(C)CC3)=C4)CC2)cc1 [Example 241, 4-(4-Methylphenyl)-N-[6-[(4-methyl-1-piperazinyl)methyl]-7,8-dihydro-2-naphthalenyl]-1-piperidinecarboxamide]
